Assays:
[1] = target: T1, human B1R receptor (CHO K1 cells stably transfected with the human B1R gene) (Homo sapiens, UniProt P46663); experiment: Functional study on the bradykinin receptor 1 (B1R), Ca2+ fluorescence (Fluo-4) FLIPR/Novostar assay, hB1R cells; type: cell-based; details: CHO-K1, read-out: % Inhibition (h-B1R) at 10 μM
T1 construct: expressed in transfected cells; host or cells: CHO K1 cells (Chinese hamster ovary), stably transfected
T1 sequence (P46663 1-353): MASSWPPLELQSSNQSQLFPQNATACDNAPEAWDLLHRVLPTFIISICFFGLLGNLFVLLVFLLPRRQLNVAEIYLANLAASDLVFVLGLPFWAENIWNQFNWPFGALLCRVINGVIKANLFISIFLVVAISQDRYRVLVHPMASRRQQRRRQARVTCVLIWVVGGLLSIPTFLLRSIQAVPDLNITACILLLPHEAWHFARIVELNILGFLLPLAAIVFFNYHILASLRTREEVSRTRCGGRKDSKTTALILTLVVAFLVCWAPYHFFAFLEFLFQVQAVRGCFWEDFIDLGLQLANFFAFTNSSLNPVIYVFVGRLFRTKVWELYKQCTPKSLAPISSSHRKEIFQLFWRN
Summary of the method: (§1)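 Ca2+ influx (Fluo-4, peak fluorescence, λex 488/λem 540 nm) was measured in CHO K1 lines expressing rat or human B1R. After a 10 μM test-compound pre-addition scoring % activation, cells received EC80 agonist: Des-Arg9-bradykinin for rat, Lys-Des-Arg9-bradykinin for human. Antagonism was expressed as % of maximum inhibition, with IC50 from varied concentrations.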

[2] = target: T2, B1R receptor of the rat (CHO K1 cells stably transfected with the B1R gene of the rat) (Rattus norvegicus, UniProt P97583); experiment: Functional study on the bradykinin receptor 1 (B1R), Ca2+ fluorescence (Fluo-4) FLIPR/Novostar assay, rB1R cells; type: cell-based; details: for inhibition at 10 µM: CHO-K1, 10 μM, read-out: % Inhibition (r-B1R) at 10 μM
T2 construct: expressed in transfected cells; host or cells: CHO K1 cells (Chinese hamster ovary), stably transfected
T2 sequence (P97583 1-337): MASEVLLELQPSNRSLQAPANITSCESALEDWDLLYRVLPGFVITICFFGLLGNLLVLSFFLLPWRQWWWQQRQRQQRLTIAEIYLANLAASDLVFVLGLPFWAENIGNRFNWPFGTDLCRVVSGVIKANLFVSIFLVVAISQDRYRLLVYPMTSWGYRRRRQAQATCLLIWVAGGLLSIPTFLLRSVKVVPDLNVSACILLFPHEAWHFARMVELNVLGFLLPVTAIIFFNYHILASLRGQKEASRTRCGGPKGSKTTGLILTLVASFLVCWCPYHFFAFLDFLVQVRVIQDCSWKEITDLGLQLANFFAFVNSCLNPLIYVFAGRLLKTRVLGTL
Summary of the method: as §1

Row | Compound | inhibition at 10 µM [1] [%] | % Inhibition (r-B1R) at 10 μM [2] [%] | inhibition at 10 µM [2] [%]
1 | CN(C(=O)c1ccc2c(c1)C(NC(=O)c1c(Cl)cccc1C(F)(F)F)CC2(C)C)C1CCN(c2ccncc2)CC1 (stereo not shown) [CC_H-17, 3-[[2-Chloro-6-(trifluoromethyl)-benzoyl]amino]-N,1,1-trimethyl-N-(1-pyridin-4-yl-piperidin-4-yl)-2,3-dihydro-indene-5-carboxylic acid amide] | 98 | 104 | 
2 | CN(C(=O)c1ccc2c(c1)C(NC(=O)CCC1CCCC1)CC2(C)C)C1CCN(c2ccncc2)CC1 (stereo not shown) [CC_H-18, 3-(3-Cyclopentyl-propanoylamino)-N,1,1-trimethyl-N-(1-pyridin-4-yl-piperidin-4-yl)-2,3-dihydro-indene-5-carboxylic acid amide] | 99 |  | 102
3 | CN(C(=O)c1ccc2c(c1)C(NC(=O)c1cccc(Cl)c1Cl)CC2(C)C)C1CCN(c2ccncc2)CC1 (stereo not shown) [CC_H-19, 3-[(2,3-Dichloro-benzoyl)amino]-N,1,1-trimethyl-N-(1-pyridin-4-yl-piperidin-4-yl)-2,3-dihydro-indene-5-carboxylic acid amide] | 100 |  | 100
4 | CN(C(=O)c1ccc2c(c1)C(NC(=O)c1sccc1Cl)CC2(C)C)C1CCN(c2ccncc2)CC1 (stereo not shown) [CC_H-20, 3-Chloro-N-[3,3-dimethyl-6-[methyl-(1-pyridin-4-yl-piperidin-4-yl)-carbamoyl]-1,2-dihydro-inden-1-yl]-thiophene-2-carboxylic acid amide] | 99 |  | 104
5 | CN(C(=O)c1ccc2c(c1)C(NC(=O)c1cc(F)ccc1Cl)CC2(C)C)C1CCN(c2ccncc2)CC1 (stereo not shown) [CC_H-21, 3-[(2-Chloro-5-fluoro-benzoyl)amino]-N,1,1-trimethyl-N-(1-pyridin-4-yl-piperidin-4-yl)-2,3-dihydro-indene-5-carboxylic acid amide] | 99 | 104 | 
6 | CN(C(=O)c1ccc2c(c1)C(NC(=O)c1cncnc1)CC2(C)C)C1CCN(c2ccncc2)CC1 (stereo not shown) [CC_H-22, N-[3,3-Dimethyl-6-[methyl-(1-pyridin-4-yl-piperidin-4-yl)-carbamoyl]-1,2-dihydro-inden-1-yl]-pyrimidine-5-carboxylic acid amide] | 97 |  | 90
7 | CN(C(=O)c1ccc2c(c1)C(NC(=O)c1ccccc1Cl)CC2(C)C)C1CCN(c2ccncc2)CC1 (stereo not shown) [CC_H-23, 3-[(2-Chloro-benzoyl)amino]-N,1,1-trimethyl-N-(1-pyridin-4-yl-piperidin-4-yl)-2,3-dihydro-indene-5-carboxylic acid amide] | 99 |  | 104
8 | CN(C(=O)c1ccc2c(c1)C(NC(=O)c1ccccc1Cl)CC2)C1CCN(c2ccncc2)CC1 (stereo not shown) [CC_H-24, 3-[(2-Chloro-benzoyl)amino]-N-methyl-N-(1-pyridin-4-yl-piperidin-4-yl)-2,3-dihydro-1H-indene-5-carboxylic acid amide] | 100 |  | 105
9 | CN(C(=O)c1ccc2c(c1)C(NC(=O)c1ccccc1Cl)CCO2)C1CCN(c2ccncc2)CC1 (stereo not shown) [CC_H-33, 4-[(2-Chloro-benzoyl)amino]-N-methyl-N-(1-pyridin-4-yl-piperidin-4-yl)-3,4-dihydro-2H-chromene-6-carboxylic acid amide] | 98 |  | 104
10 | O=C(NCCC1CCN(c2ccncc2)CC1)c1ccc2c(c1)C(NC(=O)c1ccccc1Cl)CC2 (stereo not shown) [CC_H-34, 3-[(2-Chloro-benzoyl)amino]-N-[2-(1-pyridin-4-yl-piperidin-4-yl)-ethyl]-2,3-dihydro-1H-indene-5-carboxylic acid amide] | 99 |  | 104
11 | CN(C(=O)c1ccc2c(c1)C(NC(=O)c1cccc(Cl)c1Cl)CCO2)C1CCN(c2ccncc2)CC1 (stereo not shown) [CC_H-35, 4-[(2,3-Dichloro-benzoyl)amino]-N-methyl-N-[1-pyridin-4-yl-piperidin-4-yl]-3,4-dihydro-2H-chromene-6-carboxylic acid amide] | 97 |  | 104
12 | O=C(NCCC1CCN(c2ccncc2)CC1)c1ccc2c(c1)C(NC(=O)c1cc(F)ccc1Cl)CC2 (stereo not shown) [CC_H-36, 3-[(2-Chloro-5-fluoro-benzoyl)amino]-N-[2-(1-pyridin-4-yl-piperidin-4-yl)-ethyl]-2,3-dihydro-1H-indene-5-carboxylic acid amide] | 99 |  | 104
13 | O=C(NCCC1CCN(c2ccncc2)CC1)c1ccc2c(c1)C(NC(=O)c1cnccc1C(F)(F)F)CC2 (stereo not shown) [CC_H-37, N-[6-[2-(1-Pyridin-4-yl-piperidin-4-yl)-ethyl-carbamoyl]-2,3-dihydro-1H-inden-1-yl]-4-(trifluoromethyl)-pyridine-3-carboxylic acid amide] | 93 |  | 104
14 | CN(C(=O)c1ccc2c(c1)C(NC(=O)C1CCCCC1)CCO2)C1CCN(c2ccncc2)CC1 (stereo not shown) [CC_H-38, 4-(Cyclohexanecarbonylamino)-N-methyl-N-(1-pyridin-4-yl-piperidin-4-yl)-3,4-dihydro-2H-chromene-6-carboxylic acid amide] | 99 |  | 104
15 | CN(C(=O)c1ccc2c(c1)C(NC(=O)c1sccc1Cl)CCO2)C1CCN(c2ccncc2)CC1 (stereo not shown) [CC_H-40, 4-[(3-Chloro-thiophene-2-carbonyl)amino]-N-methyl-N-(1-pyridin-4-yl-piperidin-4-yl)-3,4-dihydro-2H-chromene-6-carboxylic acid amide] | 95 |  | 100

The remaining lines, values ahead:

Row | inhibition at 10 µM [1] [%] | % Inhibition (r-B1R) at 10 μM [2] [%] | inhibition at 10 µM [2] [%] | Compound
16 | 98 |  | 104 | CN(C(=O)c1ccc2c(c1)C(N(C)C(=O)c1cccc(Cl)c1Cl)CC2)C1CCN(c2ccncc2)CC1 (stereo not shown) [CC_H-25, 3-[(2,3-Dichloro-benzoyl)-methyl-amino]-N-methyl-N-(1-pyridin-4-yl-piperidin-4-yl)-2,3-dihydro-1H-indene-5-carboxylic acid amide]
17 | 100 | 103 |  | CN(C(=O)c1ccc2c(c1)C(NC(=O)c1cc(F)ccc1Cl)CC2)C1CCN(c2ccncc2)CC1 (stereo not shown) [CC_H-26, 3-[(2-Chloro-5-fluoro-benzoyl)amino]-N-methyl-N-(1-pyridin-4-yl-piperidin-4-yl)-2,3-dihydro-1H-indene-5-carboxylic acid amide]
18 | 100 | 104 |  | CN(C(=O)c1ccc2c(c1)C(N(C)C(=O)c1cc(F)ccc1Cl)CC2)C1CCN(c2ccncc2)CC1 (stereo not shown) [CC_H-27, 3-[(2-Chloro-5-fluoro-benzoyl)-methyl-amino]-N-methyl-N-(1-pyridin-4-yl-piperidin-4-yl)-2,3-dihydro-1H-indene-5-carboxylic acid amide]
19 | 99 |  | 103 | CC(C)CC(=O)N(C)C1CCc2ccc(C(=O)N(C)C3CCN(c4ccncc4)CC3)cc21 (stereo not shown) [CC_H-28, N-Methyl-3-[methyl-(3-methyl-butanoyl)-amino]-N-(1-pyridin-4-yl-piperidin-4-yl)-2,3-dihydro-1H-indene-5-carboxylic acid amide]
20 | 99 |  | 103 | CN(C(=O)c1ccc2c(c1)C(NC(=O)c1sccc1Cl)CC2)C1CCN(c2ccncc2)CC1 (stereo not shown) [CC_H-29, 3-Chloro-N-[6-[methyl-(1-pyridin-4-yl-piperidin-4-yl)-carbamoyl]-2,3-dihydro-1H-inden-1-yl]-thiophene-2-carboxylic acid amide]
21 | 99 |  | 104 | CN(C(=O)c1ccc2c(c1)C(N(C)C(=O)c1sccc1Cl)CC2)C1CCN(c2ccncc2)CC1 (stereo not shown) [CC_H-30, 3-Chloro-N-methyl-N-[6-[methyl-(1-pyridin-4-yl-piperidin-4-yl)-carbamoyl]-2,3-dihydro-1H-inden-1-yl]-thiophene-2-carboxylic acid amide]
22 | 97 |  | 105 | CN(C(=O)c1ccc2c(c1)C(N(C)C(=O)c1cnccc1C(F)(F)F)CC2)C1CCN(c2ccncc2)CC1 (stereo not shown) [CC_H-32, N-Methyl-N-[6-[methyl-(1-pyridin-4-yl-piperidin-4-yl)-carbamoyl]-2,3-dihydro-1H-inden-1-yl]-4-(trifluoromethyl)-pyridine-3-carboxylic acid amide]
23 | 99 | 104 |  | CC(C)CC(=O)NC1CCOc2ccc(C(=O)N(C)C3CCN(c4ccncc4)CC3)cc21 (stereo not shown) [CC_H-39, N-Methyl-4-(3-methyl-butanoylamino)-N-(1-pyridin-4-yl-piperidin-4-yl)-3,4-dihydro-2H-chromene-6-carboxylic acid amide]

— patent publication US8680159B2, “Bradykinin 1 receptor modulating compounds” (Gruenenthal GmbH, priority 2010, dated 2014)
